# Measurements as given in US8952024B2, “Herbicidal pyrimidone derivatives” (E I du Pont de Nemours and Company, priority 2009, dated 2015).
# Experiments:
# Type in all cases: in vivo
# [1] = test system: umbrella sedge (Cyperus difformis); assay: Test B flooded paddy test; details: for Plant response rating, Flood, Sedge, Umbrella: 250 g ai/ha, flooded paddy test, visual rating on 0 to 100 scale (0 no effect, 100 complete control) after 13 to 15 days; for Plant response rating, Sedge, Umbrella: Flood (flooded paddy test), 13 to 15 days; for Sedge, Umbrella plant response rating: Flood, 31 g ai/ha, scale 0 to 100 (0 no effect, 100 complete control)
# Procedure, shortened: (§1)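 Visual scores run from 0 (no effect) to 100 (complete control), assigned by comparison with controls 13 to 15 days after treatment. Test compounds went straight into water standing 3 cm above the soil, around plants at the 2-leaf stage kept in a greenhouse.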
# rice (Oryza sativa) = assay: Test B flooded paddy test; details: for Plant response rating, Flood, Rice: 250 g ai/ha, flooded paddy test, visual rating on 0 to 100 scale (0 no effect, 100 complete control) after 13 to 15 days; for Plant response rating, Rice: Flood (flooded paddy test), 13 to 15 days; for Rice plant response rating: Flood, 31 g ai/ha, scale 0 to 100 (0 no effect, 100 complete control)
# Procedure, shortened: as §1
# [2] = test system: johnsongrass (Sorghum halepense); assay: Test B pre-/postemergence plant response; details: for Johnsongrass plant response rating (0 to 100 scale): 62 g ai/ha, 0 is no effect, 13 to 15 days
# Procedure, shortened: (§2)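 Visually scored on a 0 to 100 scale after 13 to 15 days in greenhouse versus controls. Treatments were preemergence on seeded loam/sand soil and postemergence on 1- to 4-leaf plants.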
# wild oat (Avena fatua) = assay: Test B pre-/postemergence plant response; details: for Oat, Wild plant response rating (0 to 100 scale): 62 g ai/ha, 0 is no effect, 13 to 15 days
# Procedure, shortened: as §2
# [3] = test system: Surinam grass (Brachiaria decumbens); assay: Test B pre-/postemergence plant response; details: for Surinam Grass plant response rating (0 to 100 scale): 62 g ai/ha, 0 is no effect, 13 to 15 days
# Procedure, shortened: as §2
# [4] = test system: green foxtail (Setaria viridis); assay: Test B pre-/postemergence plant response; details: for Foxtail, Green plant response rating (0 to 100 scale): 62 g ai/ha, 0 is no effect, 13 to 15 days
# Procedure, shortened: as §2
# corn (Zea mays) = assay: Test B pre-/postemergence plant response; details: for Corn plant response rating (0 to 100 scale): 62 g ai/ha, 0 is no effect, 13 to 15 days
# Procedure, shortened: as §2
# [5] = test system: lambsquarters (Chenopodium album); assay: Test B pre-/postemergence plant response; details: for Lambsquarters plant response rating (0 to 100 scale): 62 g ai/ha, 0 is no effect, 13 to 15 days
# Procedure, shortened: as §2
# [6] = test system: pigweed (Amaranthus retroflexus); assay: Test B pre-/postemergence plant response; details: for Pigweed plant response rating (0 to 100 scale): 62 g ai/ha, 0 is no effect, 13 to 15 days
# Procedure, shortened: as §2
# [7] = test system: blackgrass (Alopecurus myosuroides); assay: Test B pre-/postemergence plant response; details: for Blackgrass plant response rating (0 to 100 scale): 62 g ai/ha, 0 is no effect, 13 to 15 days
# Procedure, shortened: as §2
# [8] = test system: ragweed (common ragweed, Ambrosia elatior); assay: Test B pre-/postemergence plant response; details: for Ragweed plant response rating (0 to 100 scale): 62 g ai/ha, 0 is no effect, 13 to 15 days
# Procedure, shortened: as §2
# [9] = test system: giant foxtail (Setaria faberii); assay: Test B pre-/postemergence plant response; details: for Foxtail, Giant plant response rating (0 to 100 scale): 62 g ai/ha, 0 is no effect, 13 to 15 days
# Procedure, shortened: as §2
# [10] = test system: goosegrass (Eleusine indica); assay: Test B pre-/postemergence plant response; details: for Goosegrass plant response rating (0 to 100 scale): 62 g ai/ha, 0 is no effect, 13 to 15 days
# Procedure, shortened: as §2
# [11] = 62 g ai/ha, scale of 0 to 100 where 0 is no effect and 100 is complete control
# [12] = 125 g ai/ha, scale 0 to 100, 0 is no effect, 100 is complete control
# [13] = 31 g ai/ha, postemergence, scale 0 to 100, 0 is no effect, 100 is complete control
# [14] = postemergence, 100 is complete control
# [15] = Postemergence, 250 g ai/ha, scale 0 to 100 (0 no effect, 100 complete control)
# [16] = Postemergence, 125 g ai/ha, visual rating after 13 to 15 days, scale 0 (no effect) to 100 (complete control)
smiles,measurement,setting,value
CC(C)CC(=O)OC1=C(C(=O)c2cnc(-c3ccccc3)n(-c3ccccc3)c2=O)C(=O)CCC1 [Compound 83],"Plant response rating, Flood, Sedge, Umbrella",[1],50
same,"Plant response rating, Sedge, Umbrella",[1]; [11],30
same,"Plant response rating, Sedge, Umbrella",[1]; [12],40
same,"Sedge, Umbrella plant response rating",[1],0
same,"Plant response rating, Flood, Rice",rice (Oryza sativa),30
same,"Plant response rating, Rice",rice (Oryza sativa); [11],0
same,"Plant response rating, Rice",rice (Oryza sativa); [12],0
same,Rice plant response rating,rice (Oryza sativa),0
same,"Plant response rating, Johnsongrass",[2]; [13],95
same,Johnsongrass plant response rating (0 to 100 scale),[2]; [14],100
same,"Plant response rating, Johnsongrass",[2]; [15],100
same,"Plant response rating, Oat, Wild",wild oat (Avena fatua); [13],10
same,"Oat, Wild plant response rating (0 to 100 scale)",wild oat (Avena fatua); [14],10
same,"Plant response rating, Oat, Wild",wild oat (Avena fatua); [15],10
same,"Plant response rating, Surinam Grass",[3]; [13],75
same,Surinam Grass plant response rating (0 to 100 scale),[3]; [14],75
same,"Plant response rating, Surinam Grass",[3]; [15],90
same,"Plant response rating, Foxtail, Green",[4]; [13],90
same,"Foxtail, Green plant response rating (0 to 100 scale)",[4]; [14],95
same,"Plant response rating, Foxtail, Green",[4]; [15],98
same,"Plant response rating, Corn",corn (Zea mays); [13],0
same,Corn plant response rating (0 to 100 scale),corn (Zea mays); [14],5
same,"Plant response rating, Corn",corn (Zea mays); [16],15
same,"Plant response rating, Corn",corn (Zea mays); [15],25
same,"Plant response rating, Lambsquarters",[5]; [13],95
same,Lambsquarters plant response rating (0 to 100 scale),[5]; [14],98
same,"Plant response rating, Lambsquarters",[5]; [15],100
same,"Plant response rating, Pigweed",[6]; [13],80
same,Pigweed plant response rating (0 to 100 scale),[6]; [14],90
same,"Plant response rating, Pigweed",[6]; [15],100
same,"Plant response rating, Blackgrass",[7]; [13],0
same,Blackgrass plant response rating (0 to 100 scale),[7]; [14],0
same,"Plant response rating, Blackgrass",[7]; [16],0
same,"Plant response rating, Blackgrass",[7]; [15],0
same,"Plant response rating, Ragweed",[8]; [13],75
same,Ragweed plant response rating (0 to 100 scale),[8]; [14],80
same,"Plant response rating, Ragweed",[8]; [15],98
same,"Plant response rating, Foxtail, Giant",[9]; [13],80
same,"Foxtail, Giant plant response rating (0 to 100 scale)",[9]; [14],95
same,"Plant response rating, Foxtail, Giant",[9]; [15],98
same,"Plant response rating, Goosegrass",[10]; [13],75
same,Goosegrass plant response rating (0 to 100 scale),[10]; [14],80
same,"Plant response rating, Goosegrass",[10]; [15],95
COCCn1c(-c2ccccc2)ncc(C(=O)C2=C(O)CCCC2=O)c1=O [Compound 85],"Plant response rating, Flood, Sedge, Umbrella",[1],80
same,"Plant response rating, Sedge, Umbrella",[1]; [11],75
same,"Plant response rating, Sedge, Umbrella",[1]; [12],80
same,"Sedge, Umbrella plant response rating",[1],50
same,"Plant response rating, Flood, Rice",rice (Oryza sativa),20
same,"Plant response rating, Rice",rice (Oryza sativa); [11],0
same,"Plant response rating, Rice",rice (Oryza sativa); [12],15
same,Rice plant response rating,rice (Oryza sativa),0
same,"Plant response rating, Johnsongrass",[2]; [13],80
same,Johnsongrass plant response rating (0 to 100 scale),[2]; [14],95
same,"Plant response rating, Johnsongrass",[2]; [15],98
same,"Plant response rating, Oat, Wild",wild oat (Avena fatua); [13],5
same,"Oat, Wild plant response rating (0 to 100 scale)",wild oat (Avena fatua); [14],25
same,"Plant response rating, Oat, Wild",wild oat (Avena fatua); [15],60
same,"Plant response rating, Surinam Grass",[3]; [13],75
same,Surinam Grass plant response rating (0 to 100 scale),[3]; [14],85
same,"Plant response rating, Surinam Grass",[3]; [15],85
same,"Plant response rating, Foxtail, Green",[4]; [13],80
same,"Foxtail, Green plant response rating (0 to 100 scale)",[4]; [14],95
same,"Plant response rating, Foxtail, Green",[4]; [15],98
same,"Plant response rating, Corn",corn (Zea mays); [13],50
same,Corn plant response rating (0 to 100 scale),corn (Zea mays); [14],70
same,"Plant response rating, Corn",corn (Zea mays); [16],85
same,"Plant response rating, Corn",corn (Zea mays); [15],85
same,"Plant response rating, Lambsquarters",[5]; [13],98
same,Lambsquarters plant response rating (0 to 100 scale),[5]; [14],98
same,"Plant response rating, Lambsquarters",[5]; [15],100
same,"Plant response rating, Pigweed",[6]; [13],100
same,Pigweed plant response rating (0 to 100 scale),[6]; [14],100
same,"Plant response rating, Pigweed",[6]; [15],100
same,"Plant response rating, Blackgrass",[7]; [13],5
same,Blackgrass plant response rating (0 to 100 scale),[7]; [14],35
same,"Plant response rating, Blackgrass",[7]; [16],35
same,"Plant response rating, Blackgrass",[7]; [15],50
same,"Plant response rating, Ragweed",[8]; [13],80
same,Ragweed plant response rating (0 to 100 scale),[8]; [14],85
same,"Plant response rating, Ragweed",[8]; [15],98
same,"Plant response rating, Foxtail, Giant",[9]; [13],75
same,"Foxtail, Giant plant response rating (0 to 100 scale)",[9]; [14],80
same,"Plant response rating, Foxtail, Giant",[9]; [15],98
same,"Plant response rating, Goosegrass",[10]; [13],70
same,Goosegrass plant response rating (0 to 100 scale),[10]; [14],70
same,"Plant response rating, Goosegrass",[10]; [15],85
